pIC50: −log10 of the molar value. Where two headings read alike, the source gives them in different places.
What was measured:
[1] = molecular target: EGFR (Homo sapiens (Human), UniProt P00533); assay: EGFR binding affinity (TR-FRET, LanthaScreen); details: 5 h incubation
How it was run: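 IC50 derived by variable-slope fit of TR-FRET signal (ex 340, em 615 and 665 nm) against inhibitor concentration. Mix contained recombinant GST-detected EGFR at 2.5 nM, Eu anti-GST antibody at 2 nM and Kinase Tracer 199 at 3 nM in Kinase Buffer A, 5 h incubation.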

[2] = molecular target: BTK^C481S (Homo sapiens (Human), UniProt Q06187, C481S); assay: BTK^C481S binding affinity (TR-FRET, LanthaScreen); details: 5 h incubation
BTK^C481S, sequence (Q06187 whole entry C481S): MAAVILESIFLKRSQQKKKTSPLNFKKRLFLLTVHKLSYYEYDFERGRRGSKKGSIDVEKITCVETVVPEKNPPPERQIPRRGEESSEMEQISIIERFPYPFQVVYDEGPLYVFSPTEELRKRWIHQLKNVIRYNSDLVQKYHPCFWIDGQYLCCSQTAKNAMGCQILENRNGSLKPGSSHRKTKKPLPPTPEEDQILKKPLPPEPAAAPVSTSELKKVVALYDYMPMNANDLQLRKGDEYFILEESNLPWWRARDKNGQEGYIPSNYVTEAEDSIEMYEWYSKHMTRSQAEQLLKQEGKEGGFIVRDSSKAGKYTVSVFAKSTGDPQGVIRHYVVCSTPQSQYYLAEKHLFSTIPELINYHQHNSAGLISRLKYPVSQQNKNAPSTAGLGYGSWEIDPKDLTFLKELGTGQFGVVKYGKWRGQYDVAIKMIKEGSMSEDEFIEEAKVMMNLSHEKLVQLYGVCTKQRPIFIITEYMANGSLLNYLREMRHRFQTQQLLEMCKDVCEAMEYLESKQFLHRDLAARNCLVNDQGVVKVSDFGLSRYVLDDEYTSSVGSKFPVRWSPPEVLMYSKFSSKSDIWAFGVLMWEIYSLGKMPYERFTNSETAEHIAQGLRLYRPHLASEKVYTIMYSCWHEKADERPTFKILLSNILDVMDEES
How it was run: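 Tracer-displacement TR-FRET: 5 nM recombinant kinase, 2 nM Eu anti-His antibody and 30 nM Kinase Tracer 236 incubated 5 h with varying inhibitor in Kinase Buffer A. Read at 340 nm excitation, 615/665 nm emission. IC50 from log[inhibitor]–response variable-slope fit.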

[3] = system: OCI-Ly10 human DLBCL cells; assay: OCI-Ly10 anti-proliferative activity (Resazurin, 72 h); assay type: cell-based; details: read-out: Proliferation OCI-Ly10-IC50
Protocol: Compounds were assayed for effects on the growth of OCI-Ly10 human DLBCL cells that are dependent on NFκB signalling. OCI-Ly10 cells were grown in suspension in T225 flasks, centrifuged and re-suspended in 2.5% FBS containing media. Cells were then plated at 7.5×10^3 cells per well in 96-well plates in varying concentrations of compound and incubated for 72 h at 37° C. An additional plate of cells to be used as the Day 0 read was seeded without compound addition, Resazurin was added to each well, incubated for 5 h and the fluorescence measured at 590 nm. After 72 h of compound treatment, Resazurin was added to each well of the compound treated plates, incubated for 5 h and the fluorescence measured at 590 nm. The IC50 was then calculated by subtracting the average Day 0 value from each well value from the treated plates, each treatment was then calculated as a percentage of the DMSO control and the percentages plotted against the inhibitor concentration to estimate the IC50 from log [Inhibitor] vs response using the Variable Slope model in Graphpad prism from Graphpad software (SanDiego, Calif.).

[4] = molecular target: BTK^WT (Homo sapiens (Human), UniProt Q06187); assay: BTK^WT binding affinity (TR-FRET, LanthaScreen)
BTK^WT, sequence (Q06187 whole entry): as the sequence (Q06187 whole entry C481S) above, with S481C counted along it
How it was run: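 Tracer-displacement TR-FRET: 2.5 nM recombinant BTK, 2 nM Eu anti-His antibody and 15 nM Kinase Tracer 236 in Kinase Buffer A with inhibitor for 5 h. Emission read at 615/665 nm (excitation 340 nm); IC50 from variable-slope fit of log concentration vs response.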

[5] = TR-FRET binding, 5 h incubation, read-out: BTK^WT IC50

EGFR, sequence (P00533 25-1210): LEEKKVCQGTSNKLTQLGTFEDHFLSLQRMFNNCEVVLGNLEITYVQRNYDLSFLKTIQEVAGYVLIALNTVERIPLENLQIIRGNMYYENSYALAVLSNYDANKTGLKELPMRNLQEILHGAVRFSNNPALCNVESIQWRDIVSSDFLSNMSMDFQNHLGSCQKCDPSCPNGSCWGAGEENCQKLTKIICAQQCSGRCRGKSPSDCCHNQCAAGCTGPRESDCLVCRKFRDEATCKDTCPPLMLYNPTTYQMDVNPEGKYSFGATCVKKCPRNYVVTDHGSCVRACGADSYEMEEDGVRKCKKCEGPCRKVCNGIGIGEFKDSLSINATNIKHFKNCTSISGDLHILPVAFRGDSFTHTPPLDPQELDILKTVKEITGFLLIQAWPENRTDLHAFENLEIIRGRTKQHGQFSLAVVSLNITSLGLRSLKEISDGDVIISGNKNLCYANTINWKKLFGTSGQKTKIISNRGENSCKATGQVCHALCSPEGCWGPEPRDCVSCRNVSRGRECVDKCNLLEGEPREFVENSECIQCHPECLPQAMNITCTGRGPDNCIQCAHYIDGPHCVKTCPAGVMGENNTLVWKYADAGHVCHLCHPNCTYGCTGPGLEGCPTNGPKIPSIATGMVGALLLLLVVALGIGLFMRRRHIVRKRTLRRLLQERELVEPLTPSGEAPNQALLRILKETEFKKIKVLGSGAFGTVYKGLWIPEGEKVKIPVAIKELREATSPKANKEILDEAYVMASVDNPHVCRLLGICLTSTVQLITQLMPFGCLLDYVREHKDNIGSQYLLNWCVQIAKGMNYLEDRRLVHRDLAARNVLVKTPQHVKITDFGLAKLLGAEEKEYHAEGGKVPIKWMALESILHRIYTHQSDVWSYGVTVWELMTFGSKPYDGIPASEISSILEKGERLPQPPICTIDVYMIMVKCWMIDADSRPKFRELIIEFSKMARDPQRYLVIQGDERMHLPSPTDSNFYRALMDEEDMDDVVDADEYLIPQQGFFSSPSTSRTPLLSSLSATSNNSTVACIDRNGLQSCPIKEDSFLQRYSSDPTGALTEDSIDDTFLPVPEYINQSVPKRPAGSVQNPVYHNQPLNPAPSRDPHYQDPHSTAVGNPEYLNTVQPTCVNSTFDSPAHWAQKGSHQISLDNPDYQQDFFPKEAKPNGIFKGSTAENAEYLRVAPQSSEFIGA

Row | SMILES | pIC50 [1] | pIC50 [2] | pIC50 ([3]; Homo sapiens, OCI-Ly10, 72 h) | pIC50 [4, 5] | pIC50 ([4]; Table 6, numeric values, read-out: BTK Binding IC50) | pIC50 [3]
1 | COc1ccccc1C(=O)NCc1ccc(-c2nn([C@H]3C=C[C@H](N)C3)c3ncnc(N)c23)cc1 [Example 59, N-[(4-{4-amino-1-[(1R,4R)-4-aminocyclopent-2-en-1-yl]-1H-pyrazolo[3,4-d]pyrimidin-3-yl}phenyl)methyl]-2-methoxybenzamide] | 5.00 to 6.00 | 7.00 to 8.00 | 6.00 to 7.00 | 7.00 to 8.00 | – | –
2 | COc1ccccc1C(=O)NCc1ccc(-n2nc(C3CCCC3)c3ncnc(N)c32)cc1 [Example 38, N-[[4-(7-amino-3-cyclopentyl-pyrazolo[4,3-d]pyrimidin-1-yl)phenyl]methyl]-2-methoxy-benzamide] | 7.00 to 8.00 | ≥ 8.00 | 7.00 to 8.00 | ≥ 8.00 | – | –
3 | COc1ccccc1C(=O)NCc1ccc(-c2nn(C3CCCC3)c3ncnc(N)c23)cc1F [Example 66, N-[[4-(4-amino-1-cyclopentyl-pyrazolo[3,4-d]pyrimidin-3-yl)-2-fluoro-phenyl]methyl]-2-methoxy-benzamide] | 6.00 to 7.00 | ≥ 8.00 | 7.00 to 8.00 | ≥ 8.00 | 8.40 | –
4 | COc1ccccc1C(=O)NCc1ccc(-c2nn(C3CCC(O)CC3)c3ncnc(N)c23)cc1 (single isomer, unassigned) [Example 23-isomer1, N-[[4-[4-amino-1-(4-hydroxycyclohexyl)pyrazolo[3,4-d]pyrimidin-3-yl]phenyl]methyl]-2-methoxy-benzamide] | 6.00 to 7.00 | ≥ 8.00 | – | ≥ 8.00 | – | 6.00 to 7.00
5 | Nc1ncnc2c1c(-c1ccc(CNC(=O)c3cccc4cccnc34)cc1)nn2C1CCCC1 [Example 70, N-[[4-(4-amino-1-cyclopentyl-pyrazolo[3,4-d]pyrimidin-3-yl)phenyl]methyl]quinoline-8-carboxamide] | 6.00 to 7.00 | ≥ 8.00 | 6.00 to 7.00 | ≥ 8.00 | – | –
6 | COc1ccc(F)cc1C(=O)NCc1ccc(-c2nn(C3CCCC3)c3ncnc(N)c23)cc1F [Example 63, N-[[4-(4-Amino-1-cyclopentyl-pyrazolo[3,4-d]pyrimidin-3-yl)-2-fluoro-phenyl]methyl]-5-fluoro-2-methoxy-benzamide] | 5.00 to 6.00 | ≥ 8.00 | 7.00 to 8.00 | ≥ 8.00 | – | –
7 | CCOC(=O)C1CCC(n2nc(-c3ccc(CNC(=O)c4ccccc4OC)cc3)c3c(N)ncnc32)CC1 (stereo not drawn) [Example 32, ethyl 4-[4-amino-3-[4-[[(2-methoxybenzoyl)amino]methyl]phenyl]pyrazolo[3,4-d]pyrimidin-1-yl]cyclohexanecarboxylate] | 6.00 to 7.00 | ≥ 8.00 | 7.00 to 8.00 | ≥ 8.00 | – | –
8 | COc1ccccc1C(=O)NCc1ccc(-c2nn([C@H]3C=C[C@H](n4ccnn4)C3)c3ncnc(N)c23)cc1 [Example 61, N-[[4-[4-amino-1-[(1R,4R)-4-(triazol-1-yl)cyclopent-2-en-1-yl]pyrazolo[3,4-d]pyrimidin-3-yl]phenyl]methyl]-2-methoxy-benzamide] | 5.00 to 6.00 | ≥ 8.00 | 6.00 to 7.00 | ≥ 8.00 | – | –
9 | COc1ccccc1C(=O)NCc1ccc(-c2nn(C3CCOCC3)c3ncnc(N)c23)cc1 [Example 29, N-[[4-(4-amino-1-tetrahydropyran-4-yl-pyrazolo[3,4-d]pyrimidin-3-yl)phenyl]methyl]-2-methoxy-benzamide] | 6.00 to 7.00 | ≥ 8.00 | 6.00 to 7.00 | ≥ 8.00 | – | –
10 | COc1ccccc1C(=O)NCc1ccc(-c2nn(CC(C)O)c3ncnc(N)c23)cc1 (stereo not drawn) [Example 74, N-[[4-[4-amino-1-(2-hydroxypropyl)pyrazolo[3,4-d]pyrimidin-3-yl]phenyl]methyl]-2-methoxy-benzamide] | 5.00 to 6.00 | 7.00 to 8.00 | 6.00 to 7.00 | 7.00 to 8.00 | – | –
11 | COc1ccncc1C(=O)NCc1ccc(-c2nn(C3CCCC3)c3ncnc(N)c23)cc1 [Example 27, N-[[4-(4-amino-1-cyclopentyl-pyrazolo[3,4-d]pyrimidin-3-yl)phenyl]methyl]-4-methoxy-pyridine-3-carboxamide] | 6.00 to 7.00 | 7.00 to 8.00 | 6.00 to 7.00 | 7.00 to 8.00 | – | –

Reference: patent US10399989B2, “Pyrazolopyrimidine derivatives as BTK inhibitors for the treatment of cancer” (Loxo Oncology, Inc., priority 2016, dated 2019)
